Measured values as given in patent US9828350B2, “5,6-dihydro-2H-[1,4]oxazin-3-yl-amine derivatives useful as inhibitors of beta-secretase (BACE)” (Janssen Pharmaceutica NV, priority 2010, dated 2017).

Experiments:
[1] = target: recombinant BACE1 protein (Homo sapiens, UniProt P56817); experiment: Biochemical FRET based assay; settings: recombinant BACE1 1 μg/ml, 120 minutes at room temperature, pH 5.0; for IC50: read-out: Biochemical FRET based assay pIC50 (converted)
Method in brief: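 Proteolysis was read as the rise in donor fluorescence (320 nm excitation, 405 nm emission) from T0 to T120, expressed in RFU. The reaction ran 120 minutes at room temperature at pH 5.0 in citrate buffer with 4% DMSO, using […] quenched Swedish APP peptide and 1 μg/ml BACE1.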

Abeta total = experiment: Cellular αLisa assay in SKNBE2 cells, Abeta total; type: cell-based, human; settings: incubated for 18 hours; for IC50: Homo sapiens, SKNBE2, 18 h, read-out: Cellular αLisa assay in SKNBE2 cells Abetatotal pIC50 (converted)
Method in brief: (§1)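 Secreted Abeta levels were measured by sandwich αLisa, pairing biotin-AbN/25 donor beads with Ab4G8 acceptor beads for total Abeta or cAb42/26 for Abeta 1-42, read at 615 nm after 650 nm excitation following 1 hour. Cells were SKNBE2 expressing wild-type hAPP695, exposed to compound for 18 hours.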

Aβ42 = experiment: Demonstration of in vivo efficacy, brain Aβ42 lowering (ELISA); settings: mouse brain
Source text: (§2) To determine whether acute administration of an Aβ42 peptide lowering agent would reduce Aβ peptide levels in vivo, non-transgenic rodents, e.g. mice or rats were used. Animals treated with the Aβ peptide lowering agent were examined and compared to those untreated or treated with vehicle and brain levels of soluble Aβ42 and total Aβ were quantitated by standard techniques, for example, using ELISA.
(§3) A typical protocol for measuring Aβ42 lowering in vivo is shown but it is only one of many variations that could be used to optimize the levels of detectable Aβ. For example, Aβ peptide lowering compounds were formulated in 20% hydroxypropyl 3 cyclodextrin. The Aβ peptide lowering agents were administered as a single oral dose (p.o.) or a single subcutaneous dose (s.c.) to overnight fasted animals. After a certain time, usually 2 or 4 h (as indicated in Table 19), the animals were sacrificed and Aβ42 levels were analysed.
(§4) Blood was collected by decapitation and exsanguinations in EDTA-treated collection tubes. Blood was centrifuged at 1900 g for 10 minutes (min) at 4° C. and the plasma recovered and flash frozen for later analysis. The brain was removed from the cranium and hindbrain. The cerebellum was removed and the left and right hemisphere were separated. The left hemisphere was stored at −18° C. for quantitative analysis of test compound levels. The right hemisphere was rinsed with phosphate-buffered saline (PBS) buffer and immediately frozen on dry ice and stored at −80° C. until homogenization for biochemical assays.
(§5) Mouse brains from non-transgenic animals were resuspended in 8 volumes of 0.4% DEA (diethylamine)/50 mM NaCl containing protease inhibitors (Roche-11873580001 or 04693159001) per gram of tissue, e.g. for 0.158 g brain, add 1.264 ml of 0.4% DEA. All samples were homogenized in the FastPrep-24 system (MP Biomedicals) using lysing matrix D (MPBio #6913-100) at 6 m/s for 20 seconds. Homogenates were centrifuged at 221.300×g for 50 min. The resulting high speed supernatants were then transferred to fresh eppendorf tubes. Nine parts of supernatant were neutralized with 1 part 0.5 M Tris-HCl pH 6.8 and used to quantify Aβtotal and Aβ42.
(§6) To quantify the amount of Aβtotal and Aβ42 in the soluble fraction of the brain homogenates, Enzyme-Linked-Immunosorbent-Assays were used. Briefly, the standards (a dilution of synthetic Aβ1-40 and Aβ1-42, Bachem) were prepared in 1.5 ml Eppendorf tube in Ultraculture, with final concentrations ranging from 10000 to 0.3 pg/ml. The samples and standards were co-incubated with HRPO-labelled N-terminal antibody for Aβ42 detection and with the biotinylated mid-domain antibody 4G8 for Aβtotal detection. […] The plate was allowed to incubate overnight at 4° C. in order to allow formation of the antibody-amyloid complex. Following this incubation and subsequent wash steps the ELISA for Aβ42 quantification was finished by addition of Quanta Blu fluorogenic peroxidase substrate according to the manufacturer's instructions (Pierce Corp., Rockford, Ill.). A reading was performed after 10 to 15 min (excitation 320 nm/emission 420 nm).

Abeta 1-42 = experiment: Cellular αLisa assay in SKNBE2 cells, Abeta 1-42; type: cell-based, human; settings: incubated for 18 hours; for IC50: Homo sapiens, SKNBE2, 18 h, read-out: Cellular αLisa assay in SKNBE2 cells Abeta 42 pIC50 (converted)
Method in brief: as §1

Aβtotal = experiment: Demonstration of in vivo efficacy, brain Aβtotal lowering (ELISA); settings: mouse brain
Source text: as §2, §3, §4, §5, §6
For Aβtotal detection, a Streptavidine-Peroxidase-Conjugate was added, followed 60 min later by an additional wash step and addition of Quanta Blu fluorogenic peroxidase substrate according to the manufacturer's instructions (Pierce Corp., Rockford, Ill.). A reading was performed after 10 to 15 min (excitation 320 nm/emission 420 nm).

Chain of recombinant BACE1 protein (P56817 46-501): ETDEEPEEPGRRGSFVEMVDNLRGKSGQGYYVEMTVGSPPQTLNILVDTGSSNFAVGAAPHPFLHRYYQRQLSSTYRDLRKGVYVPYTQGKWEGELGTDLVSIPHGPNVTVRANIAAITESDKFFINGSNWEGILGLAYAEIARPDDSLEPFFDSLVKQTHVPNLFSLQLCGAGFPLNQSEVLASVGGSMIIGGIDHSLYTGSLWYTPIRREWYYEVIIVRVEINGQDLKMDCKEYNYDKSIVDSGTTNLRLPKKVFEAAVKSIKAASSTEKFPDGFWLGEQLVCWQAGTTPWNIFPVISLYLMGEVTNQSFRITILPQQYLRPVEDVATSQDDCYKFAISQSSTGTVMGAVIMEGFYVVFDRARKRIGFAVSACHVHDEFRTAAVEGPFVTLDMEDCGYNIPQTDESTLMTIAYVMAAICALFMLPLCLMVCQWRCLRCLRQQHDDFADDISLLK

In the case of `CC1(c2cccc(-c3cncc(C#N)c3)c2)N=C(N)COC1C(F)(F)F` (single isomer, unassigned) [Compound 204], the IC50 [1] is reported as 363 nM, the “Cellular αLisa assay in SKNBE2 cells Abetatotal pIC50” value (Abeta total) is reported as 7.06 and the “Aβ42 (% Ctrl)_Mean” value (Aβ42; 30 mpk, s.c., 4 h) is reported as 113 % Ctrl. For the same compound, the “Cellular αLisa assay in SKNBE2 cells Abeta 42 pIC50” value (Abeta 1-42) was 7.05 and the “Aβtotal (% Ctrl)_Mean” value (Aβtotal; 30 mpk, s.c., 4 h) was 103 % Ctrl.

With `C[C@@]1(c2cccc(-c3cc(Cl)cc(Cl)c3)c2)COCC(N)=N1` [Compound 52] the “Biochemical FRET based assay pIC50” value [1] was 6.06, the “Cellular αLisa assay in SKNBE2 cells Abetatotal pIC50” value (Abeta total) was 6.66 and the “Aβ42 (% Ctrl)_Mean” value (Aβ42; 30 mpk, s.c., 2 h) was 68 % Ctrl. The “Cellular αLisa assay in SKNBE2 cells Abeta 42 pIC50” value (Abeta 1-42) was 6.68 and the “Aβtotal (% Ctrl)_Mean” value (Aβtotal; 30 mpk, s.c., 2 h) was 114 % Ctrl.

For `COc1cnc(C(=O)Nc2ccc(F)c([C@@]3(C)N=C(N)CO[C@@H]3F)c2)cn1` [Compound 123], the IC50 (Abeta total) was 10.5 nM, the “Aβ42 (% Ctrl)_Mean” value (Aβ42; 10 mpk, p.o., 4 h) was 38 % Ctrl and the “Aβ42 (% Ctrl)_Mean” value (Aβ42; 10 mpk, s.c., 4 h) was 24 % Ctrl. For the same compound, the IC50 (Abeta 1-42) was 10.7 nM, the “Aβtotal (% Ctrl)_Mean” value (Aβtotal; 10 mpk, p.o., 4 h) was 38 % Ctrl and the “Aβtotal (% Ctrl)_Mean” value (Aβtotal; 10 mpk, s.c., 4 h) was 21 % Ctrl.

Compound `C[C@]1(c2cc(NC(=O)c3ncc(Cl)cc3Cl)ccc2F)N=C(N)CO[C@H]1C(F)(F)F` [Compound 167] has an IC50 [1] of 34.7 nM, a melting point of 214.23 °C and an IC50 (Abeta total) of 7.59 nM. The “Aβ42 (% Ctrl)_Mean” value (Aβ42; 30 mpk, p.o., 2 h) was 95 % Ctrl, the IC50 (Abeta 1-42) was 7.59 nM and the “Aβtotal (% Ctrl)_Mean” value (Aβtotal; 30 mpk, p.o., 2 h) was 78 % Ctrl.

With `N#Cc1ccc(C(=O)Nc2cccc([C@@]3(C4CC4)N=C(N)CO[C@@]3(F)C(F)(F)F)c2)nc1` [Compound 199, (2S,3R)—N-{3-[5-amino-3-cyclopropyl-2-fluoro-2-(trifluoromethyl)-3,6-dihydro-2H-1,4-oxazin-3-yl]phenyl}-5-cyanopyridine-2-carboxamide] the IC50 [1] was 14.8 nM, the melting point was 196.12 °C and the IC50 (Abeta total) was 17 nM. The “Aβ42 (% Ctrl)_Mean” value (Aβ42; 30 mpk, s.c., 2 h) was 64 % Ctrl, the IC50 (Abeta 1-42) was 16.6 nM and the “Aβtotal (% Ctrl)_Mean” value (Aβtotal; 30 mpk, s.c., 2 h) was 45 % Ctrl.

With `C[C@]1(c2cc(NC(=O)c3ncc(C#N)cc3Cl)ccc2F)N=C(N)CO[C@@H]1F` [Compound 209] the IC50 [1] was 39.8 nM, the IC50 (Abeta total) was 13.8 nM and the “Aβ42 (% Ctrl)_Mean” value (Aβ42; 10 mpk, p.o., 4 h) was 6 % Ctrl. For the same compound, the IC50 (Abeta 1-42) was 15.5 nM and the “Aβtotal (% Ctrl)_Mean” value (Aβtotal; 10 mpk, p.o., 4 h) was 14 % Ctrl.

In the case of `COc1cnc(C(=O)Nc2ccc(F)c([C@@]3(C4CC4)N=C(N)CO[C@H]3F)c2)cn1` [Compound 217], the IC50 (Abeta total) is reported as 490 nM, the “Aβ42 (% Ctrl)_Mean” value (Aβ42; 30 mpk, p.o., 2 h) is reported as 80 % Ctrl and the IC50 (Abeta 1-42) is reported as 525 nM. For the same compound, the “Aβtotal (% Ctrl)_Mean” value (Aβtotal; 30 mpk, p.o., 2 h) was 73 % Ctrl.

In the case of `N#Cc1cnc(C(=O)Nc2ccc(F)c([C@@]3(C4CC4)N=C(N)CO[C@@H]3F)c2)c(Cl)c1` [Compound 218], the IC50 [1] is reported as 126 nM, the IC50 (Abeta total) is reported as 832 nM and the “Aβ42 (% Ctrl)_Mean” value (Aβ42; 30 mpk, s.c., 2 h) is reported as 99 % Ctrl. The IC50 (Abeta 1-42) was 851 nM and the “Aβtotal (% Ctrl)_Mean” value (Aβtotal; 30 mpk, s.c., 2 h) was 90 % Ctrl.

For `NC1=N[C@@](c2cc(NC(=O)c3ncc(Cl)cc3F)ccc2F)(C2CC2)[C@@H](F)OC1` [Compound 219], the IC50 [1] was 93.3 nM, the IC50 (Abeta total) was 282 nM and the “Aβ42 (% Ctrl)_Mean” value (Aβ42; 30 mpk, s.c., 2 h) was 95 % Ctrl. For the same compound, the IC50 (Abeta 1-42) was 309 nM and the “Aβtotal (% Ctrl)_Mean” value (Aβtotal; 30 mpk, s.c., 2 h) was 86 % Ctrl.

With `COc1cnc(C(=O)Nc2cccc(C3(C4CC4)N=C(N)COC3C(F)(F)F)c2)cn1` (stereo not shown) [Compound 228] the “Biochemical FRET based assay pIC50” value [1] was 6.67, the “Cellular αLisa assay in SKNBE2 cells Abetatotal pIC50” value (Abeta total) was 7.35 and the “Aβ42 (% Ctrl)_Mean” value (Aβ42; 30 mpk, p.o., 2 h) was 99 % Ctrl. For the same compound, the “Cellular αLisa assay in SKNBE2 cells Abeta 42 pIC50” value (Abeta 1-42) was 7.31 and the “Aβtotal (% Ctrl)_Mean” value (Aβtotal; 30 mpk, p.o., 2 h) was 79 % Ctrl.
